BindingDB's records for doi:10.1016/j.ejmech.2021.113895 (University of Pisa, 2021)

Assay: Inhibition of recombinant full length human His-tagged PDK1 expressed in Baculovirus expression system in presence of ATP measured by […]

Structure (SMILES)	IC50
O=C(CCNC(=O)c1cccn(Cc2ccc(F)c(F)c2)c1=O)Nc1ccc2c(c1)/C(=C/c1cnc[nH]1)C(=O)N2 [US10351548, Compound DD21]	0.103 µM
O=C(CCCNC(=O)c1cccn(Cc2ccc(F)c(F)c2)c1=O)Nc1ccc2c(c1)C(=Cc1cccs1)C(=O)N2 [US10351548, Compound DF9]	5.88 µM
Cc1c(Br)cc(C(=O)N[C@@H](C(=O)Nc2ccc3c(c2)/C(=C/c2cnc[nH]2)C(=O)N3)c2ccccc2)c(=O)n1Cc1ccc(F)c(F)c1	0.475 µM
Cc1ccc(C(=O)N[C@@H](C(=O)Nc2ccc3c(c2)/C(=C/c2cnc[nH]2)C(=O)N3)c2ccccc2)c(=O)n1Cc1ccc(F)c(F)c1	0.148 µM
Cc1c(Br)cc(C(=O)NCC(=O)Nc2ccc3c(c2)/C(=C/c2cnc[nH]2)C(=O)N3)c(=O)n1Cc1ccc(F)c(F)c1	0.134 µM
Cc1ccc(C(=O)NCC(=O)Nc2ccc3c(c2)/C(=C/c2cnc[nH]2)C(=O)N3)c(=O)n1Cc1ccc(F)c(F)c1	0.103 µM
O=C(CCNC(=O)c1cccn(Cc2ccc(F)c(F)c2)c1=O)Nc1ccc2c(c1)C(=Cc1cccs1)C(=O)N2	1.34 µM
O=C(CCCNC(=O)c1cccn(Cc2ccc(F)c(F)c2)c1=O)Nc1ccc2c(c1)/C(=C/c1cnc[nH]1)C(=O)N2 [US10351548, Compound DF8]	0.245 µM
O=C(CCNC(=O)c1cccn(Cc2ccc(F)c(F)c2)c1=O)Nc1ccc2c(c1)/C(=C/c1ncc[nH]1)C(=O)N2	0.455 µM
